Data published in patent US20260356860A1, “2-SUBSTITUTED 3,4A,5,7,8,8A-HEXAHYDRO-4H-THIOPYRANO[4,3-DJPYRIMIDIN-4-ONES FOR WOUND TREATMENT” (priority 2022, published 2026).

How the values were obtained:
[1] = test system: S. aureus (MRSA) (derived from ATCC ® 33593 ™); experiment: Bacteriostasis, log reduction; type: cell-based; conditions: S. aureus (MRSA) ATCC 33593
Procedure: (§1) In order to assess the log reduction capabilities of compounds of Formula (1), testing was performed on organisms that are found in acute and chronic wounds. Triplicate tubes were prepared for each bacteria using 50 μL of inoculum (about 1×10^6 CFU/mL) which was added to 450 μL of compound solution (compound of Formula (I)) (or 100 μL of inoculum in 900 μL of compound solution), resulting in a final inoculum of about 1×10^5 CFU/mL, as shown in Table 4.
(§2) Tubes were mixed with a vortex and then incubated in a shaking incubator at 175 RPM and 35° C. to 37° C.
(§3) Positive control in Tables 5a and 5b was 1 mL of 0.89% saline with 1 mL of the 1×10^6 CFU/mL of the organism.
(§4) For Compounds 1, 7, 8, 10, and 18 in Tables 6, 7-A, 7-B, 8, 9, 10-A, 10-B, and 11: The compound solutions were prepared with compound (30 mg), polysorbate 20 (1.6 mL), butylene glycol (1.6 mL), phosphatidyl choline (0.66 g), ethanol (1.6 mL), hydroxypropyl cellulose (0.26 g), and ultra pure water (24.9 mL).
(§5) XAV939 Control in Table X1 was XAV939 (30 mg), polysorbate 20 (1.6 mL), butylene glycol (1.6 mL), phosphatidyl choline (0.66 g), ethanol (1.6 mL), ultra pure water (24.9 mL), and hydroxypropyl cellulose (0.26 g).
(§6) GO-HA Control in Table X2 was GO-HA (30 mg), polysorbate 20 (1.6 mL), butylene glycol (1.6 mL), phosphatidyl choline (0.66 g), ethanol (1.6 mL), ultra pure water (24.9 mL), and hydroxypropyl cellulose (0.26 g).
(§7) For Compound 18+GO-HA in Tables 6 and X4: compound 18 (45 mg), GO-HA (45 mg), polysorbate 20 (2 mL), butylene glycol (2 mL), phosphotidyl choline (0.5 g), ethanol (2 mL), hydroxypropyl cellulose (0.40 g), and ultra pure water (40 mL).
(§8) For XAV939+GO-HA in Tables 6 and X3-A, and X3-B: XAV939 (45 mg), GO-HA (45 mg), butylene glycol (2 mL), polysorbate 20 (2 mL), phosphotidyl choline (0.5 g), ethanol (2 mL), hydroxypropyl cellulose (0.40 g), and ultra pure water (40 mL).
(§9) Testing was performed at two time points: 18 to 24 hours, and […].

[2] = test system: S. aureus (derived from ATCC ® 6538 ™); experiment: Bacteriostasis, log reduction; type: cell-based; conditions: S. aureus ATCC 6538
Procedure: as §1, §2, §3, §4, §5, §6, §7, §8, §9

[3] = test system: E. coli (derived from ATCC ® 8739 ™); experiment: Bacteriostasis, log reduction; type: cell-based; conditions: E. coli ATCC 8739
Procedure: as §1, §2, §3, §4, §5, §6, §7, §8, §9

[4] = test system: S. epidermidis (derived from ATCC ® 14990 ™); experiment: Bacteriostasis, log reduction; type: cell-based; conditions: S. epidermidis ATCC 14990
Procedure: as §1, §2, §3, §4, §5, §6, §7, §8, §9

[5] = test system: HEK293 SuperTOPFlash reporter cells, Wnt promoter; experiment: Wnt inhibition in HEK293 SuperTOPFlash reporter cells, DMSO vs aqueous GO-HA (FIGS. 1-3); type: cell-based
Procedure: In order to determine the effect of the compounds of Formula (I) on Wnt inhibition, an invitro assay using HEK293 SuperTOPFlash reporter cells, with the Wnt promoter driving a luciferase reporter gene, were utilized. 40,000 HEK293 SuperTOPFlash reporter cells were seeded, per well, in a 48 well plate for 24 hours, prior to administration of serial dilutions of the compounds of Formula (I) to individual wells. Serial dilutions ranging from […] to 1 nM of compounds of Formula (I) were added with or without 50 ng/mL Wnt3α (Time Biosciences) and allowed to incubate with the reporter cells for 18 hours. Reporter cells with no treatment were used as negative control.

[6] = test system: S. pyogenes (derived from ATCC ® 19615 ™); experiment: Bacteriostasis, log reduction; type: cell-based; conditions: S. pyogenes ATCC 19615
Procedure: as §1, §2, §3, §4, §5, §6, §7, §8, §9

[7] = test system: A. baumannii (derived from ATCC ® 19606 ™); experiment: Bacteriostasis, log reduction; type: cell-based; conditions: A. baumannii ATCC 19606
Procedure: as §1, §2, §3, §4, §5, §6, §7, §8, §9

[8] = test system: E. coli 0157:H7 (derived from ATCC ® 12900 ™); experiment: Bacteriostasis, log reduction; type: cell-based; conditions: E. coli 0157:H7 ATCC 12900
Procedure: as §1, §2, §3, §4, §5, §6, §7, §8, §9

[9] = test system: new porcine skin; experiment: Energy peak of healed wound; type: in vivo; conditions: day 21
Procedure: Additional tests were performed including elasticity (Table 12); max force (Table 13); tensile strength (strain) (Table 14); energy peak (Table 15); rete-ridge formation; and collagen organization (plane polarized light) (FIG. 24) of the healed wound sites, described as follows.
A is saline (control), B is serum formulation (vehicle), C is GO-HA (vehicle), D is Compound 1; E is Compound 1+GO-HA; F is Compound 8; G is Compound 8+GO-HA; H is Compound 10; and J is Compound 10+GO-HA.
Energy Peak (N*mm) is the maximum force applied to a material over time. All compounds of Formula (I) tested with or without GO-HA ranged from 5% to 41% improvement in energy peak compared to the saline control. […] The vehicle, GO-HA, provided a 61% improvement in energy peak over the saline control.

## O=c1[nH]c(-c2ccc(-c3ccc(Br)nc3)cc2)nc2c1CSCC2 [Compound 7, 2-(4-(6-bromopyridin-3-yl)phenyl)-3,5,7,8-tetrahydro-4H-thiopyrano [4,3-d]pyrimidin-4-one]
[1]; 24 h
  Average result: 2.7 × 10^3
  Log Reduction: 1.2
  Log Value: 3.4
[1]; 72 h
  Average result: 1.4 × 10^5
  Log Reduction: No
  Log Value: 5.1
[2]; 24 h
  Average result: 7.3 × 10^2
  Log Reduction: 2.4
  Log Value: 2.9
[2]; 72 h
  Average result: <200
  Log Reduction: >3.0
  Log Value: <2.3
[3]; 24 h
  Average result: 7.9 × 10^4
  Log Reduction: 0.4
  Log Value: 4.9
[3]; 72 h
  Average result: >3.6 × 10^6
  Log Reduction: No
  Log Value: >6.6
[4]; 24 h
  Average result: 2.8 × 10^4
  Log Reduction: 0.4
  Log Value: 4.4
[4]; 72 h
  Average result: <200
  Log Reduction: >2.5
  Log Value: <2.3
[5]
  IC50: 5 to 10 nM

## O=c1[nH]c(-c2ccc(-c3ccc(B(O)O)cc3)cc2)nc2c1CSCC2 [Compound 10, (4′-(4-oxo-3,5,7,8-tetrahydro-4H-thiopyrano[4,3-d]pyrimidin-2-yl)-[1,1′-biphenyl]-4-yl)boronic acid]
[6]; 24 h
  Average result: <200
  Log Reduction: >3.2
  Log Value: <2.3
[6]; 72 h
  Average result: <200
  Log Reduction: >3.2
  Log Value: <2.3
[1]; 24 h
  Average result: 3.1 × 10^4
  Log Reduction: 0.1
  Log Value: 4.5
[1]; 72 h
  Average result: 2.7 × 10^3
  Log Reduction: 1.2
  Log Value: 3.4
[2]; 24 h
  Average result: 1.5 × 10^5
  Log Reduction: 0.1
  Log Value: 5.2
[2]; 72 h
  Average result: 6.7 × 10^3
  Log Reduction: 1.5
  Log Value: 3.8
[7]; 24 h
  Average result: <200
  Log Reduction: >3.0
  Log Value: <2.3
[7]; 72 h
  Average result: <200
  Log Reduction: >3.0
  Log Value: <2.3
[3]; 24 h
  Average result: <200
  Log Reduction: >3.2
  Log Value: <2.1
[3]; 72 h
  Average result: 6.0 × 10^2
  Log Reduction: 2.5
  Log Value: 2.8
[4]; 24 h
  Average result: 1.1 × 10^4
  Log Reduction: 0.8
  Log Value: 4.0
[4]; 72 h
  Average result: 3.3 × 10^2
  Log Reduction: 2.3
  Log Value: 2.5
[8]; 24 h
  Average result: <200
  Log Reduction: >1.9
  Log Value: <2.3
[8]; 72 h
  Average result: <200
  Log Reduction: >1.9
  Log Value: <2.3
[9]
  improvement in energy peak compared to the saline control: 41%
[9]; topical, individual value 1
  Energy Peak: 3149.241 N*mm
[9]; topical, individual value 2
  Energy Peak: 3038.880 N*mm
[9]; topical, individual value 3
  Energy Peak: 2645.076 N*mm
[9]; topical, individual value 4
  Energy Peak: 2623.098 N*mm
[9]; topical, mean
  Energy Peak, Mean: 2864.074 N*mm

## COC(=O)NCCOC(C)(C)c1ccc(-c2nc3c(c(=O)[nH]2)CSCC3)cc1 [Compound 18, methyl (2-((2-(4-(4-oxo-3,5,7,8-tetrahydro-4H-thiopyrano[4,3-d]pyrimidin-2-yl)phenyl)propan-2-yl)oxy)ethyl)carbamate]
[6]; 24 h
  Average result: <200
  Log Reduction: >3.2
  Log Value: <2.3
[6]; 72 h
  Average result: <200
  Log Reduction: >3.2
  Log Value: <2.3
[1]; 24 h
  Average result: 1.5 × 10^3
  Log Reduction: 1.6
  Log Value: 3.2
[1]; 72 h
  Average result: <200
  Log Reduction: >2.5
  Log Value: <2.3
[2]; 24 h
  Average result: 4.7 × 10^4
  Log Reduction: 0.5
  Log Value: 4.7
[2]; 72 h
  Average result: 9.3 × 10^2
  Log Reduction: 2.2
  Log Value: 3.0
[7]; 24 h
  Average result: <200
  Log Reduction: >3.0
  Log Value: <2.3
[7]; 72 h
  Average result: <200
  Log Reduction: >3.0
  Log Value: <2.3
[3]; 24 h
  Average result: 5.3 × 10^2
  Log Reduction: 1.8
  Log Value: 2.7
[3]; 72 h
  Average result: <200
  Log Reduction: >2.2
  Log Value: <2.3
[4]; 24 h
  Average result: 8.0 × 10^2
  Log Reduction: 2.0
  Log Value: 2.9
[4]; 72 h
  Average result: <200
  Log Reduction: >2.6
  Log Value: <2.3
[8]; 24 h
  Average result: <200
  Log Reduction: >1.9
  Log Value: <2.3
[8]; 72 h
  Average result: <200
  Log Reduction: >1.9
  Log Value: <2.3
